Measurements reported in patent publication US20130259844A1, “Fermented Foodstuff” (University of Plymouth, priority 2010, published 2013).

Legend:
[1] = Fermentation of first milk substrate (dried skimmed milk powder), pH monitoring; conditions: incubated at 30° C.
Protocol: (§1) Lactic acid producing bacteria listed in Table 1 were tested for their ability to ferment two milk substrates according to the following procedures:
(§2) A commercially available dried skimmed milk powder was prepared according to the manufacturer's instructions to provide a first milk substrate. A milk replacer for calves (70 g) was mixed with water (100 g) to provide a second milk substrate. Both substrates were placed in a steamer for 30 minutes/day for each of 3 days for sterilisation.
(§3) Each lactic acid producing bacteria was grown in MRS broth (ex Oxoid) for 24 hours at 37° C.
(§4) 100 ml of each milk substrate was inoculated with 100 μl of the culture of each lactic acid producing bacteria. The samples were incubated at 30° C. for 48 hours. The ability of the bacteria to ferment the milk substrate was determined by monitoring the pH at intervals during the incubation of 0, 8, 24, 32 and 48 hours, with a reduction in the pH indicating the production of lactic acid. The results for the first and second milk substrates are set out in Tables 3 and 4 respectively.

[2] = Fermentation of second milk substrate (milk replacer for calves), pH monitoring; conditions: incubated at 30° C.
Protocol: as §1, §2, §3, §4

| Substance | pH ([1]; 0 h) | pH ([1]; 8 h) | pH ([1]; 24 h) | pH ([1]; 32 h) | pH ([1]; 48 h) | pH ([2]; 0 h) | pH ([2]; 8 h) | pH ([2]; 24 h) | pH ([2]; 32 h) | pH ([2]; 48 h) |
| --- | --- | --- | --- | --- | --- | --- | --- | --- | --- | --- |
| Lactobacillus salivarius ss. Salivarius [NCIMB 41606] | 6.69 | 6.61 | 5.55 | 4.76 | 4.35 | 5.82 | 6.03 | 6.01 | 5.92 | 5.37 |
| Lactobacillus plantarum [NCIMB 41607] | 6.69 | 6.62 | 5.83 | 5.08 | 4.53 | 5.54 | 5.69 | 5.75 | 5.61 | 4.80 |
| Lactobacillus salivarius ss. Salivarius [NCIMB 41609] | 6.69 | 6.62 | 5.72 | 4.98 | 4.56 | 5.55 | 5.69 | 5.70 | 5.58 | 4.93 |
| Lactobacillus plantarum [NCIMB 41605] | 6.69 | 6.65 | 6.09 | 5.22 | 4.60 | 6.13 | 6.46 | 6.51 | 5.90 | 5.72 |
| Lactobacillus salivarius ss. Salivarius [NCIMB 41610] | 6.69 | 6.68 | 5.69 | 4.96 | 4.46 | 5.55 | 5.67 | 5.72 | 5.54 | 4.76 |
| Lactobacillus plantarum [NCIMB 41608] | 6.69 | 6.65 | 5.85 | 4.96 | 4.45 | 6.12 | 6.44 | 6.50 | 6.25 | 5.71 |
